Reference: ChEMBL document CHEMBL1149714 (2007)
Converted amounts (≈) assume the structure as drawn.

Experiments:
Type in all cases: functional
Moraxella catarrhalis = experiment: Antibacterial activity against Moraxella catarrhalis ATCC 43617 after 20 hrs by agar dilution method; conditions: ATCC 43617, 20 h
Enterobacter cloacae [1] = experiment: Antibacterial activity against Enterobacter cloacae ATCC 13047 after 20 hrs by agar dilution method; conditions: ATCC 13047, 20 h
Streptococcus pneumoniae = experiment: Antibacterial activity against penicillin resistant Streptococcus pneumoniae SR-16675 after 20 hrs by agar dilution method
Pseudomonas aeruginosa [2] = experiment: Antibacterial activity against Imipenem resistant Pseudomonas aeruginosa SR-6554 after 20 hrs by agar dilution method
Enterobacter cloacae [3] = experiment: Antibacterial activity against AmpC producing Enterobacter cloacae SR-4321 after 20 hrs by agar dilution method
Pseudomonas aeruginosa [4] = experiment: Antibacterial activity against Pseudomonas aeruginosa SR24 after 20 hrs by agar dilution method
Escherichia coli [5] = experiment: Antibacterial activity against Escherichia coli NIHJJC2 after 20 hrs by agar dilution method
Haemophilus influenzae [6] = experiment: Antibacterial activity against Haemophilus influenzae ATCC 49766 after 20 hrs by agar dilution method; conditions: ATCC 49766, 20 h
Escherichia coli [7] = experiment: Antibacterial activity against Toho 2 (ESBL) producing Escherichia coli SR-21003 after 20 hrs by agar dilution method
Pseudomonas aeruginosa [8] = experiment: Antibacterial activity against AmpC hyperproducing Pseudomonas aeruginosa SR24-12 after 20 hrs by agar dilution method
Staphylococcus aureus = experiment: Antibacterial activity against […] Staphylococcus aureus SMITH after 20 hrs by agar dilution method
Haemophilus influenzae [9] = experiment: Antibacterial activity against beta-lactamase negative ampicillin resistant Haemophilus influenzae SR-11435 after 20 hrs by agar dilution method
Pseudomonas aeruginosa [10] = experiment: Antibacterial activity against Pseudomonas aeruginosa SR-5393 after 20 hrs by agar dilution method
Pseudomonas aeruginosa [11] = experiment: Antibacterial activity against CAZ susceptible Pseudomonas aeruginosa SR24 infected in mouse after 7 days; conditions: 168 h
Pseudomonas aeruginosa [12] = experiment: Antibacterial activity against CAZ resistant Pseudomonas aeruginosa SR24-12 infected in mouse after 7 days; conditions: 168 h

SMILES | MIC (Moraxella catarrhalis) | MIC (Enterobacter cloacae [1]) | MIC (Streptococcus pneumoniae) | MIC (Pseudomonas aeruginosa [2]) | MIC (Enterobacter cloacae [3]) | MIC (Pseudomonas aeruginosa [4]) | MIC (Escherichia coli [5]) | MIC (Haemophilus influenzae [6]) | MIC (Escherichia coli [7]) | MIC (Pseudomonas aeruginosa [8]) | MIC (Staphylococcus aureus) | MIC (Haemophilus influenzae [9]) | MIC (Pseudomonas aeruginosa [10]) | ED50 (Pseudomonas aeruginosa [11]) | ED50 (Pseudomonas aeruginosa [12])
CNCCCn1ccc2c1ccc[n+]2CC1=C(C(=O)[O-])N2C(=O)[C@@H](NC(=O)/C(=N\OC3(C(=O)O)CCC3)c3nc(N)sc3Cl)[C@H]2SC1 | 0.016 µg/mL (≈ 0.0228 µM) | 2 µg/mL (≈ 2.84 µM) | 4 µg/mL (≈ 5.69 µM) | 16 µg/mL (≈ 22.8 µM) | 4 µg/mL (≈ 5.69 µM) | 1 µg/mL (≈ 1.42 µM) | 1 µg/mL (≈ 1.42 µM) | 0.032 µg/mL (≈ 0.0455 µM) | 4 µg/mL (≈ 5.69 µM) | 4 µg/mL (≈ 5.69 µM) | 1 µg/mL (≈ 1.42 µM) | 0.063 µg/mL (≈ 0.0896 µM) | 4 µg/mL (≈ 5.69 µM) |  | 
CNCCCn1ccc2c1ccc[n+]2CC1=C(C(=O)[O-])N2C(=O)[C@@H](NC(=O)/C(=N\OC(C)(C)C(=O)O)c3nc(N)sc3Cl)[C@H]2SC1 | 0.008 µg/mL (≈ 0.0116 µM) | 2 µg/mL (≈ 2.89 µM) | 4 µg/mL (≈ 5.79 µM) | 16 µg/mL (≈ 23.1 µM) | 4 µg/mL (≈ 5.79 µM) | 2 µg/mL (≈ 2.89 µM) | 1 µg/mL (≈ 1.45 µM) | 0.032 µg/mL (≈ 0.0463 µM) | 8 µg/mL (≈ 11.6 µM) | 8 µg/mL (≈ 11.6 µM) | 2 µg/mL (≈ 2.89 µM) | 0.063 µg/mL (≈ 0.0911 µM) | 4 µg/mL (≈ 5.79 µM) |  | 
CNCCCn1ccc2c1ccc[n+]2CC1=C(C(=O)[O-])N2C(=O)[C@@H](NC(=O)/C(=N\OCC(=O)O)c3nc(N)sc3Cl)[C@H]2SC1 | 0.016 µg/mL (≈ 0.0241 µM) | 0.25 µg/mL (≈ 0.377 µM) | 2 µg/mL (≈ 3.02 µM) | 8 µg/mL (≈ 12.1 µM) | 8 µg/mL (≈ 12.1 µM) | 0.5 µg/mL (≈ 0.754 µM) | 0.25 µg/mL (≈ 0.377 µM) | 0.032 µg/mL (≈ 0.0483 µM) | 2 µg/mL (≈ 3.02 µM) | 8 µg/mL (≈ 12.1 µM) | 2 µg/mL (≈ 3.02 µM) | 0.125 µg/mL (≈ 0.188 µM) | 2 µg/mL (≈ 3.02 µM) |  | 
CO/N=C(\C(=O)N[C@@H]1C(=O)N2C(C(=O)[O-])=C(C[N+]3(C)CCCC3)CS[C@H]12)c1csc(N)n1 | 0.5 µg/mL (≈ 1.04 µM) |  | 2 µg/mL (≈ 4.16 µM) | 64 µg/mL (≈ 133 µM) |  | 0.5 µg/mL (≈ 1.04 µM) | 0.063 µg/mL (≈ 0.131 µM) | 0.032 µg/mL (≈ 0.0666 µM) | 4 µg/mL (≈ 8.32 µM) | 32 µg/mL (≈ 66.6 µM) | 2 µg/mL (≈ 4.16 µM) | 0.5 µg/mL (≈ 1.04 µM) | 4 µg/mL (≈ 8.32 µM) |  | 
CNCCCn1ccc2c1ccc[n+]2CC1=C(C(=O)[O-])N2C(=O)[C@@H](NC(=O)/C(=N\OC3(C(=O)O)CC3)c3nc(N)sc3Cl)[C@H]2SC1 | 0.008 µg/mL (≈ 0.0116 µM) | 0.5 µg/mL (≈ 0.726 µM) | 4 µg/mL (≈ 5.8 µM) | 16 µg/mL (≈ 23.2 µM) | 2 µg/mL (≈ 2.9 µM) | 1 µg/mL (≈ 1.45 µM) | 0.5 µg/mL (≈ 0.726 µM) | 0.016 µg/mL (≈ 0.0232 µM) | 4 µg/mL (≈ 5.8 µM) | 4 µg/mL (≈ 5.8 µM) | 1 µg/mL (≈ 1.45 µM) | 0.032 µg/mL (≈ 0.0464 µM) | 4 µg/mL (≈ 5.8 µM) |  | 
CC(C)(O/N=C(\C(=O)N[C@@H]1C(=O)N2C(C(=O)[O-])=C(C[n+]3ccccc3)CS[C@H]12)c1csc(N)n1)C(=O)O [CEFTAZIDIME] | 0.063 µg/mL (≈ 0.115 µM) | 8 µg/mL (≈ 14.6 µM) | 8 µg/mL (≈ 14.6 µM) | 32 µg/mL (≈ 58.5 µM) | 64 µg/mL (≈ 117 µM) | 0.5 µg/mL (≈ 0.915 µM) | 0.25 µg/mL (≈ 0.457 µM) | 0.063 µg/mL (≈ 0.115 µM) | 1 µg/mL (≈ 1.83 µM) | 64 µg/mL (≈ 117 µM) | 8 µg/mL (≈ 14.6 µM) | 0.125 µg/mL (≈ 0.229 µM) | 2 µg/mL (≈ 3.66 µM) | 2.83 mg/kg | 127 mg/kg
CNCCCn1ccc2c1ccc[n+]2CC1=C(C(=O)[O-])N2C(=O)[C@@H](NC(=O)/C(=N\O[C@@H](C)C(=O)O)c3nsc(N)n3)[C@H]2SC1 | 0.5 µg/mL (≈ 0.777 µM) | 0.25 µg/mL (≈ 0.388 µM) | 4 µg/mL (≈ 6.21 µM) | 4 µg/mL (≈ 6.21 µM) | 8 µg/mL (≈ 12.4 µM) | 0.5 µg/mL (≈ 0.777 µM) | 0.031 µg/mL (≈ 0.0482 µM) | 0.031 µg/mL (≈ 0.0482 µM) | 8 µg/mL (≈ 12.4 µM) | 16 µg/mL (≈ 24.9 µM) | 2 µg/mL (≈ 3.11 µM) | 0.25 µg/mL (≈ 0.388 µM) | 2 µg/mL (≈ 3.11 µM) |  | 
CNCCCn1ccc2c1ccc[n+]2CC1=C(C(=O)[O-])N2C(=O)[C@@H](NC(=O)/C(=N\O[C@@H](CO)C(=O)O)c3nc(N)sc3Cl)[C@H]2SC1 | 0.032 µg/mL (≈ 0.0462 µM) | 0.25 µg/mL (≈ 0.361 µM) | 8 µg/mL (≈ 11.5 µM) | 16 µg/mL (≈ 23.1 µM) | 2 µg/mL (≈ 2.89 µM) | 1 µg/mL (≈ 1.44 µM) | 0.25 µg/mL (≈ 0.361 µM) | 0.063 µg/mL (≈ 0.0909 µM) | 2 µg/mL (≈ 2.89 µM) | 4 µg/mL (≈ 5.77 µM) | 2 µg/mL (≈ 2.89 µM) | 0.125 µg/mL (≈ 0.18 µM) | 4 µg/mL (≈ 5.77 µM) |  | 
C=C(O/N=C(\C(=O)N[C@@H]1C(=O)N2C(C(=O)[O-])=C(C[n+]3cccc4c3ccn4CCCNC)CS[C@H]12)c1nc(N)sc1Cl)C(=O)O | 0.016 µg/mL (≈ 0.0237 µM) | 0.25 µg/mL (≈ 0.37 µM) | 2 µg/mL (≈ 2.96 µM) | 32 µg/mL (≈ 47.4 µM) | 1 µg/mL (≈ 1.48 µM) | 2 µg/mL (≈ 2.96 µM) | 0.25 µg/mL (≈ 0.37 µM) | 0.032 µg/mL (≈ 0.0474 µM) | 1 µg/mL (≈ 1.48 µM) | 8 µg/mL (≈ 11.8 µM) | 0.5 µg/mL (≈ 0.741 µM) | 0.063 µg/mL (≈ 0.0933 µM) | 8 µg/mL (≈ 11.8 µM) |  | 
